{
  "source": "patent US20240209005A1",
  "about": "“BICYCLIC HETEROARYL BORONATE DERIVATIVES AS ECTONUCLEOTIDE PYROPHOSPHATASE PHOSPHODIESTERASE 1 INHIBITORS” (RIBOSCIENCE LLC, priority 2021, published 2024)",
  "data": [
    {"molecular_target": "T1, ENPP1 (Homo sapiens, UniProt P22413)", "T1 sequence (P22413 1-925)": "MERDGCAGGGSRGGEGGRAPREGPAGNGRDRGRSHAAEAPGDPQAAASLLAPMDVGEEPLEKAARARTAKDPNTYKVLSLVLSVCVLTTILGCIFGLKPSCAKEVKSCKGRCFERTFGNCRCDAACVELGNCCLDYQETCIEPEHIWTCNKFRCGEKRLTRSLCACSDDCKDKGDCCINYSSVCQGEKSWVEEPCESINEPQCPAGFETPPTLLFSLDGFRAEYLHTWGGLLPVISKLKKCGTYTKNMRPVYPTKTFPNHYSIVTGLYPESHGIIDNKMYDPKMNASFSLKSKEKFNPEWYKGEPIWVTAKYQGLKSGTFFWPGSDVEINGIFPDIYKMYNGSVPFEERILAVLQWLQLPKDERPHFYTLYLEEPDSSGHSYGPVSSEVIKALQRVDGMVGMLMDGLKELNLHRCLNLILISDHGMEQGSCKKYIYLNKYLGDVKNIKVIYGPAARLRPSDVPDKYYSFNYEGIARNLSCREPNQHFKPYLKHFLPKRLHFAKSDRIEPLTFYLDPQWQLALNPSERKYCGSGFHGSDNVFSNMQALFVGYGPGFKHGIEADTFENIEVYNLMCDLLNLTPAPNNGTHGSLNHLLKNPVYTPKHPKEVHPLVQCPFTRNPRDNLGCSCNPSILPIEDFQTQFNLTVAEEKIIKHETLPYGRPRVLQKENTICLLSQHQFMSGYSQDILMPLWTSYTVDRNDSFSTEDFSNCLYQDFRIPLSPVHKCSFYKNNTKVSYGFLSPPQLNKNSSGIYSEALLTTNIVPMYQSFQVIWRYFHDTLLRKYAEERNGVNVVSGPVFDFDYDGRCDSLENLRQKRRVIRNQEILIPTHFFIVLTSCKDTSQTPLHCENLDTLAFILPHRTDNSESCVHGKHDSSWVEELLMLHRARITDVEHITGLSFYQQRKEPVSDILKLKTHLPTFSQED", "assay": "Measurement of pNP-TMP hydrolysis by ENPP1", "assay_type": "biochemical", "settings": "purified ENPP1, pNP-TMP substrate 500 μM, KM 232 μM; Ki calculated from IC50 by Cheng-Prusoff", "experimental": "p-Nitrophenyl thymidine 5′-monophosphate (pNP-TMP) is a synthesized substrate for ENPP1. The ENPP1 enzyme activity assay with pNP-TMP substrate was conducted as follows:\nIncubation of ENPP1 with compounds was set at 25° C. for 10 min. […] For each compound dilution, wells with assay buffer (50 mM Tris-HCl, pH8.8, 250 mM NaCl, 0.1 mg/ml BSA, 1% DMSO) only but no ENPP1 were included as controls for subtraction of test compound derived absorbance at 405 nm.\nAbsorbance at 405 nm was recorded immediately in kinetic mode by PerkinElmer 2300 Enspire multimode plate reader.\nFor each inhibitor, the specific ENPP1 activity was calculated using the following equation: ENPP1 activity (pmol/min/g)=Adjusted Vmax (OD405 nm/min) X conversion factor (pmol/OD405 nm)/amount of enzyme (g)\nAdjusted Vmax=V0×(Km+(S))/(S).\nV0=(OD405 nm with ENPP1−OD405 nm ENPP1 blank)/minutes. OD405 nm was plotted, with blank subtracted, against time (minutes), the initial linear rate is V0. […]\nThe slope is the conversion factor. The percent ENPP1 activity for each sample was calculated using the following equation:\n% enzyme activity=sample enzyme activity/MAX Activity×100%.\nTo determine the IC50 for each compound, compound concentration values and percent enzyme activity values were inserted into GraphPad Prism (GraphPad Prism version 7.0 for Windows, GraphPad Software, La Jolla California USA, www.graphpad.com), and Prism's Transform analysis was used to convert the x-axis values (compound concentration) to logarithms. A sigmoidal variable slope nonlinear regression analysis was performed using the following equation: Y=Bottom+(Top−Bottom)/(1+10^((LogIC50−X)*HillSlope)).", "units": {"Ki": "nM"}, "values": [
      {"smiles": "Cn1ncc2nc(/C=C/c3cccnc3)nc(NCc3ccc(B(O)O)cc3)c21", "note": "[compound 35, 4-[([1-methyl-5-[(E)-2-(pyridin-3-yl)ethenyl]pyrazolo[4,3-d]pyrimidin-7-yl]amino)methyl]phenylboronic acid]", "Ki": "< 100"},
      {"smiles": "O=CNc1csc2c(C#Cc3ccc(B(O)O)cc3)ncnc12", "note": "[compound 36, 4-(2-[7-formamidothieno[3,2-d]pyrimidin-4-yl]ethynyl)-phenylboronic acid]", "Ki": "< 1000"},
      {"smiles": "OB(O)c1ccc(CNc2ccnc3cn[nH]c23)cc1", "note": "[compound 37, 4-([1H-pyrazolo[4,3-b]pyridin-7-ylamino]methyl)phenyl-boronic acid]", "Ki": "< 100"},
      {"smiles": "COC(=O)c1csc2c(NCc3ccc(B(O)O)cc3)ncnc12", "note": "[compound 38, 4-([[7-(methoxycarbonyl)thieno[3,2-d]pyrimidin-4-yl]-amino]methyl)-phenylboronic acid]", "Ki": "< 100"},
      {"smiles": "NC(=O)c1csc2c(NCc3ccc(B(O)O)cc3)ncnc12", "note": "[compound 39, 4-[([7-carbamoylthieno[3,2-d]pyrimidin-4-yl]amino)-methyl]phenylboronic acid]", "Ki": "< 100"},
      {"smiles": "N#Cc1csc2c(NCc3ccc(B(O)O)cc3)ncnc12", "note": "[compound 40, 4-[([7-cyanothieno[3,2-d]pyrimidin-4-yl]amino)-methyl]phenylboronic acid]", "Ki": "< 100"}
    ]},
    {"tested_on": "HGS tumor model", "assay": "Anti-tumor activity in HGS tumor model", "assay_type": "in vivo", "settings": "animals treated with 20/kg of compound, day 42 after inoculation", "text": "[…]", "units": {"tumor size": "mm3"}, "values": [
      {"smiles": "C=CC(=O)N1CCN(CCCn2c(=O)c(-c3c(Cl)c(OC)cc(OC)c3Cl)cc3cnc(NC)nc32)CC1", "note": "[8-(3-(4-acryloylpiperazin-1-yl)propyl)-6-(2,6-dichloro-3,5-dimethoxyphenyl)-2-(methylamino)pyrido[2,3-d]pyrimidin-7(8H)-one]", "tumor size": 55}
    ]}
  ]
}
